In ChEMBL document CHEMBL5724914, “Linking interpersonal differences in gut microbiota composition and drug biotransformation activity” (2024):

Experiments:
[1] = The drug is tested on Z-029 corresponding to rat gut metagenome with ENA study accession number: PRJEB37062 and ENA sample accession number: ERS12561828 for biotransformation under anaerobic condition. The drug concentrations were measured over 9 timepoints collected between 0 and 24 hours of incubation by liquid-chromatography-coupled mass spectrometry (LC–MS); conditions: 2 µM
[2] = The drug is tested on Z-022 corresponding to mouse gut metagenome with ENA study accession number: PRJEB37062 and ENA sample accession number: ERS12561821 for biotransformation under anaerobic condition. The drug concentrations were measured over 9 timepoints collected between 0 and 24 hours of incubation by liquid-chromatography-coupled mass spectrometry (LC–MS); conditions: 2 µM
[3] = The drug is tested on Z-018 corresponding to pig gut metagenome with ENA study accession number: PRJEB37062 and ENA sample accession number: ERS12561817 for biotransformation under anaerobic condition. The drug concentrations were measured over 9 timepoints collected between 0 and 24 hours of incubation by liquid-chromatography-coupled mass spectrometry (LC–MS); conditions: 2 µM
[4] = The drug is tested on Z-014 corresponding to rat gut metagenome with ENA study accession number: PRJEB37062 and ENA sample accession number: ERS12561814 for biotransformation under anaerobic condition. The drug concentrations were measured over 9 timepoints collected between 0 and 24 hours of incubation by liquid-chromatography-coupled mass spectrometry (LC–MS); conditions: 2 µM
[5] = The drug is tested on Z-010 corresponding to metagenome with ENA study accession number: PRJEB37062 and ENA sample accession number: ERS12561810 for biotransformation under anaerobic condition. The drug concentrations were measured over 9 timepoints collected between 0 and 24 hours of incubation by liquid-chromatography-coupled mass spectrometry (LC–MS); conditions: 2 µM
[6] = The drug is tested on WLS-350 corresponding to human gut metagenome with ENA study accession number: PRJEB37062 and ENA sample accession number: ERS12561789 for biotransformation under anaerobic condition. The drug concentrations were measured over 9 timepoints collected between 0 and 24 hours of incubation by liquid-chromatography-coupled mass spectrometry (LC–MS); conditions: 2 µM
[7] = The drug is tested on WLS-090 corresponding to human gut metagenome with ENA study accession number: PRJEB37062 and ENA sample accession number: ERS12561753 for biotransformation under anaerobic condition. The drug concentrations were measured over 9 timepoints collected between 0 and 24 hours of incubation by liquid-chromatography-coupled mass spectrometry (LC–MS); conditions: 2 µM
[8] = The drug is tested on WLS-039 corresponding to human gut metagenome with ENA study accession number: PRJEB37062 and ENA sample accession number: ERS12561746 for biotransformation under anaerobic condition. The drug concentrations were measured over 9 timepoints collected between 0 and 24 hours of incubation by liquid-chromatography-coupled mass spectrometry (LC–MS); conditions: 2 µM
[9] = The drug is tested on WLS-038 corresponding to human gut metagenome with ENA study accession number: PRJEB37062 and ENA sample accession number: ERS12561745 for biotransformation under anaerobic condition. The drug concentrations were measured over 9 timepoints collected between 0 and 24 hours of incubation by liquid-chromatography-coupled mass spectrometry (LC–MS); conditions: 2 µM
[10] = The drug is tested on WLS-027 corresponding to human gut metagenome with ENA study accession number: PRJEB37062 and ENA sample accession number: ERS12561744 for biotransformation under anaerobic condition. The drug concentrations were measured over 9 timepoints collected between 0 and 24 hours of incubation by liquid-chromatography-coupled mass spectrometry (LC–MS); conditions: 2 µM
[11] = The drug is tested on WLS-010 corresponding to human gut metagenome with ENA study accession number: PRJEB37062 and ENA sample accession number: ERS12561743 for biotransformation under anaerobic condition. The drug concentrations were measured over 9 timepoints collected between 0 and 24 hours of incubation by liquid-chromatography-coupled mass spectrometry (LC–MS); conditions: 2 µM
[12] = human gut metagenome, 24 h, 2 µM
[13] = human gut metagenome, 24 h, 2 µM; remark: listed apart in the source
[14] = human gut metagenome, 24 h, 2 µM; remark: listed apart in the source
[15] = human gut metagenome, 24 h, 2 µM; remark: listed apart in the source
[16] = human gut metagenome, 24 h, 2 µM; remark: listed apart in the source
[17] = human gut metagenome, 24 h, 2 µM; remark: listed apart in the source
[18] = human gut metagenome, 24 h, 2 µM; remark: listed apart in the source
[19] = human gut metagenome, 24 h, 2 µM; remark: listed apart in the source
[20] = human gut metagenome, 24 h, 2 µM; remark: listed apart in the source
Also: call rule not given here.

Row | SMILES | Bacterial Biotransformation [1] | Bacterial Biotransformation [2] | Bacterial Biotransformation [3] | Bacterial Biotransformation [4] | Bacterial Biotransformation [5] | Bacterial Biotransformation [6] | Bacterial Biotransformation [7] | Bacterial Biotransformation [8] | Bacterial Biotransformation [9] | Bacterial Biotransformation [10] | Bacterial Biotransformation [11] | Bacterial Biotransformation [12] | Bacterial Biotransformation [13] | Bacterial Biotransformation [14] | Bacterial Biotransformation [15] | Bacterial Biotransformation [16] | Bacterial Biotransformation [17] | Bacterial Biotransformation [18] | Bacterial Biotransformation [19] | Bacterial Biotransformation [20]
1 | Nc1c2c(nc3ccccc13)CCCC2 [TACRINE] | Compound NOT metabolized | Compound NOT metabolized | Compound NOT metabolized | Compound NOT metabolized | Compound NOT metabolized | Compound NOT metabolized | Compound metabolized | Compound NOT metabolized | Compound NOT metabolized | Compound NOT metabolized | Compound NOT metabolized | Compound NOT metabolized | Compound NOT metabolized | Compound NOT metabolized | Compound metabolized | Compound NOT metabolized | Compound metabolized | Compound NOT metabolized | Compound NOT metabolized | Compound metabolized
2 | Cc1ccc(S(=O)(=O)NC(=O)NN2CCCCCC2)cc1 [TOLAZAMIDE] | Compound NOT metabolized | Compound metabolized | Compound metabolized | Compound NOT metabolized | Compound metabolized | Compound NOT metabolized | Compound metabolized | Compound metabolized | Compound metabolized | Compound metabolized | Compound metabolized | Compound NOT metabolized | Compound metabolized | Compound metabolized | Compound metabolized | Compound metabolized | Compound metabolized | Compound metabolized | Compound NOT metabolized | Compound metabolized
3 | CCOC(=O)[C@H](CCc1ccccc1)N[C@@H](C)C(=O)N1[C@H](C(=O)O)C[C@H]2CCCC[C@@H]21 [TRANDOLAPRIL] | Compound NOT metabolized | Compound NOT metabolized | Compound metabolized | Compound NOT metabolized | Compound metabolized | Compound NOT metabolized | Compound metabolized | Compound metabolized | Compound metabolized | Compound metabolized | Compound metabolized | Compound NOT metabolized | Compound NOT metabolized | Compound metabolized | Compound metabolized | Compound metabolized | Compound metabolized | Compound metabolized | Compound NOT metabolized | Compound metabolized
4 | CC(CN(C)C)CN1c2ccccc2CCc2ccccc21.O=C(O)/C=C\C(=O)O (stereo not given) [TRIMIPRAMINE MALEATE] | Compound NOT metabolized | Compound NOT metabolized | Compound NOT metabolized | Compound NOT metabolized | Compound NOT metabolized | Compound NOT metabolized | Compound metabolized | Compound metabolized | Compound NOT metabolized | Compound metabolized | Compound metabolized | Compound NOT metabolized | Compound metabolized | Compound NOT metabolized | Compound metabolized | Compound NOT metabolized | Compound metabolized | Compound NOT metabolized | Compound metabolized | Compound NOT metabolized
5 | CC(=O)CC(c1ccccc1)c1c(O)c2ccccc2oc1=O (stereo not given) [WARFARIN] | Compound NOT metabolized | Compound metabolized | Compound metabolized | Compound metabolized | Compound metabolized | Compound metabolized | Compound metabolized | Compound NOT metabolized | Compound NOT metabolized | Compound metabolized | Compound metabolized | Compound metabolized | Compound metabolized | Compound metabolized | Compound metabolized | Compound metabolized | Compound metabolized | Compound metabolized | Compound metabolized | Compound metabolized
6 | Cc1ccc(-c2nc3ccc(C)cn3c2CC(=O)N(C)C)cc1 [ZOLPIDEM] | Compound NOT metabolized | Compound metabolized | Compound NOT metabolized | Compound NOT metabolized | Compound metabolized | Compound NOT metabolized | Compound metabolized | Compound NOT metabolized | Compound NOT metabolized | Compound NOT metabolized | Compound NOT metabolized | Compound metabolized | Compound NOT metabolized | Compound NOT metabolized | Compound metabolized | Compound NOT metabolized | Compound metabolized | Compound metabolized | Compound NOT metabolized | Compound metabolized
